Experimental data reported in patent US20090054376A1, “BENZOFURAN DERIVATIVES WITH THERAPEUTIC ACTIVITIES” (Pharmos Corporation, priority 2005, published 2009).
Structures can show the parent of a compound that is named as a salt. Where two headings read alike, the source gives them in different places.

Tests used:
[1] = test system: carrageenan induced inflammatory pain and paw edema; test: Inflammatory pain and paw edema induced by carrageenan; format: in vivo, Male Sprague Dawley rats; settings: for Percent Inhibition of Inflammatory Pain Responses, Edema / Percent Inhibition of Inflammatory Pain Responses, ΔForce / Percent Inhibition of Inflammatory Pain Responses, ΔLT / inhibition in vivo at 10 mg/kg: 10 mg/kg i.p.; for inhibition in vivo at 20 mg/kg / inhibition in vivo at 10 mg/kg: Rattus norvegicus, ip; for inhibition in vivo at 20 mg/kg: 20 mg/kg i.p. (two asterisks)
Description: Male Sprague Dawley rats (average body weight 200 g, Harlan, Israel) were transiently sedated by placement on dry ice for the duration of the injections. Rats were injected subcutaneously, in the subplantar region of one (right) paw with 0.1 ml of 2% w/v λ Carrageenan in sterile saline. […] Test compounds were, unless otherwise stated, administered i.p. at initial single dose of 3, 10 or 20 mg/kg, and volume dose of 5 ml/kg, immediately after the carrageenan injection. Selected compounds were also tested p.o. following oral gavage. Vehicle and celecoxib treated animals were used as controls. Each treatment group comprised at least seven animals.
Before induction of inflammatory pain and three hours after injection, the animals reactions to pain stimuli were tested in two systems. The first stimulus was thermal and assessed by the Plantar Test according to Hargreaves, using Ugo Basile Model 7370. The scale was set to an intensity of 50 arbitrary units. The latency time till the animal lift a paw as a reaction to the thermal stimulus was recorded for both the inflamed and non-inflamed hind paws. The second stimulus was mechanical (tactile) and assessed using a Dynamic Plantar Sesthesiomether (Ugo Basile Model 73400-002). […] Finally, the impact on paw edema was assessed. Paw thickness was measured using a dial thickness gauge (Spring-dial, constant low pressure gauge, Mitutoyo, TG/L-1, 0.01 mm) and paw volume was measured using a plethysmometer (model #7150, Ugo Basile, Italy). At the end of the study, animals were euthanized.
The results are measured as the differences between the two hind paws at time 0 and 3 hours both as ALT, for the latency time in the thermal part of the study, and as ΔForce, for the mechanical part of the study. The paw volume is expressed as percent from vehicle treated animals. Results are expressed as mean±SEM for each treatment group and the differences among those groups are analyzed by analysis of variance (ANOVA) followed by post-hoc Tukey's test.
Results refer to i.p. treatment with 10 mg/kg. Results marked with one asterisk refer to a dose 3 mg/kg, whereas two asterisks refer to 20 mg/kg. Celecoxib is included as reference.

[2] = test system: visceral pain writhing responses; test: Visceral pain, acetic acid induced writhing responses; format: in vivo, Male ICR mice; settings: for inhibition in vivo at 2 mg/kg: Mus musculus, iv, read-out: Percent Inhibition of Visceral Pain Writhing Responses; for inhibition in vivo at 2 mg/kg / Percent Inhibition of Visceral Pain Writhing Responses: single dose 2 mg/kg i.v., compared to untreated group
Description: Male ICR mice (average body weight 25 g, Harlan, Israel) were pretreated by i.v. injection at volume dose of 5 ml/kg of vehicle, control and test compounds at various doses. Other routes of administration were tested for selected compounds including i.m. or s.c. injections at volume dose of 2.5 ml/kg and p.o. gavage at volume dose of 5 ml/kg. Compounds were dissolved in CREMOPHOR®:Ethanol and diluted 1:20 in saline prior to injection or gavage. Compounds administered i.v. were injected fifteen minutes before pain induction, whereas compounds administered i.m., s.c. or p.o. were supplied thirty minutes before pain induction, unless otherwise indicated. Each treatment group, except for controls comprising at least 30 animals, was composed of at least 6 animals. Fifteen or thirty minutes after drug administration, depending on the route of administration, the mice were injected i.p. with 10 ml/kg of 0.6% acetic acid and the number of visceral pain related behaviors (writhing movements globally defined as WR, i.e. stretching, contractions of the abdomen accompanied by an elongation of the body and extension of the hind limbs) was counted over a period of 5 minutes, starting 5 minutes after the acetic acid administration. These visceral pain related behaviors were globally defined as writhing responses (WR). The results are expressed as mean number of writhing responses ±SEM. Data were analyzed using analysis of variance (ANOVA) followed by post-hoc Fisher test.

[3] = test system: CB1 related cannabimimetic activity; test: Safety: body temperature, catalepsy, spontaneous locomotor activity, elevated plus maze, sensitivity to touch; format: in vivo, ICR male mice; settings: 40 mg/kg i.v.
Description: In the present study, impact of compounds of the invention on the central nervous system was measured by monitoring the body temperature, catalepsy and spontaneous locomotor activity of rodents. These activities are part of the Tetrad assays which are indicative, if all parameters are affected, of CB1 mediated activity. In addition, lack of CNS psychomimetic effect was assessed in the elevated plus maze model. Finally, sensitivity to touch was determined in order to evaluate peripheral CB1 related activity.
ICR male mice (average body weight 25 g, Harlan, Israel) were administered the compounds of the invention i.v. at a dose of 2 mg/kg and at a volume dose of 5 ml/kg. The psychoactive cannabinoid HU-210 was used as positive control at the 100-fold lower dose of 0.02 mg/kg i.v. The following measurements were made starting 15 minutes after compound administration. All tests were completed for each animal within approximately 10 minutes. Rectal temperature was monitored using a thermistor probe (YSI model 400, USA). Spontaneous locomotion was assessed using the open field methodology. The number of squares crossed by the animals were recorded and analyzed during a period of three minutes. At the end of the open field test, the animals were tested for catalepsy symptoms. This was carried out by gently forcing the animal to stand on its hind paws when its front paws are holding on an elevated beam. The time for the animal to step down of the beam was measured in seconds. A normal animal withdraws the beam immediately whereas cataleptic animal tend to stay on the beam. The longer the animal stays leaning on the beam, the more cataleptic the animal is. The behavior of the animals was then assessed in the elevated plus maze. The elevated plus maze consists of two open arms and two arms that are enclosed by high walls (arms 30×10 cm, wall height 20 cm). The elevated plus maze is usually elevated 80 cm above the floor. The mouse is placed on the maze head facing an open arm, and the time spent in the different compartments of the maze (open arms, closed arms and central area) are measured for the next 5 minutes. Results are expressed as percent of the time spent in the open arms, normal animals preferring to stay in the closed arms of the maze. Finally, animals were gently touched by an observer blinded for the treatment group and their sensitivity scored according to the following scale: 0 not sensitive, 1 sensitive and 2 highly sensitive. Results are expressed as average±SEM. At the end of the study, the animals were euthanized.

[4] = 3 hours after carrageenan, reduction in paw swelling
[5] = 3 hours, mechanical stimulus, read-out: Percent Inhibition of Inflammatory Pain Responses, ΔForce
[6] = 3 hours, reduction in paw swelling, read-out: Percent Inhibition of Inflammatory Pain Responses, Edema
[7] = 3 hours, thermal stimulus, read-out: Percent Inhibition of Inflammatory Pain Responses, ΔLT
[8] = 3 hours after carrageenan, reduction in paw swelling, read-out: Percent Inhibition of Inflammatory Pain Responses, Edema

In the case of CCCCCCC(C)(C)c1cc(O)c2c(c1)OC1(C)C(C)CCC21 (stereo not drawn) [Compound C5S-4, 6-(1,1-dimethylheptyl)-1,8a-dimethyl-2,3,3a,8a-tetrahydro-1H-8-oxa-cyclo-penta[α]inden-4-ol], the “Percent Inhibition of Inflammatory Pain Responses, Edema” value (“Percent Inhibition … Edema” below) [1, 4] was 49%, the “Percent Inhibition of Inflammatory Pain Responses, ΔForce” value (from here on “Percent Inhibition … ΔForce”) ([1]; 3 hours, mechanical stimulus) was 88% and the “Percent Inhibition of Inflammatory Pain Responses, ΔLT” value (“Percent Inhibition … ΔLT” for short) ([1]; 3 hours, thermal stimulus) was 100%.
Compound CCCCC(C)(C)c1cc(OCC(O)CO)c2c(c1)OC1CCCCC21 (stereo not shown) [Compound C6S-10, 3-[3-(1,1-Dimethylpentyl)-5a,6,7,8,9,9a-hexahydro-dibenzofuran-1-yloxy]-propane-1,2-diol] has an inhibition in vivo at 20 mg/kg [1, 5] of 24%, an inhibition in vivo at 20 mg/kg [1, 6] of 37% and an inhibition in vivo at 20 mg/kg [1, 7] of 50%. The inhibition in vivo at 2 mg/kg [2] was 28%.
With CCCCCCC(C)(C)c1cc(OC(=O)C=CC(=O)O)c2c(c1)OC1(C)C(C)CCC21 (stereo not drawn) [Compound C5S-5, But-2-enedioic acid mono-[6-(1,1-dimethylheptyl)-1,8a-dimethyl-2,3,3a,8a-tetrahydro-1H-8-oxa-cyclopenta[α]inden-4-yl]ester] the “Percent Inhibition of Visceral Pain Writhing Responses” value [2] was 27%.
CCCCCCC(C)(C)c1cc(O)c2c(c1)OC1C(N)CCCCC21 (stereo not drawn) [Compound C7S-32, 9-Amino-2-(1,1-dimethylheptyl)-5,6,7,8,9,9a-hexahydro-4bH-10-oxa-benzo[α]azulen-4-ol] was tested, and the “inhibition of pain (writhing) response” value ([2]; 4 mg/kg i.v.) was 38% and the “inhibition of pain (writhing) response” value ([2]; 10 mg/kg i.v.) was 100%.
With CCCCC(C)(C)c1cc(O)c2c(c1)OC1CCCCCC21 (stereo not drawn) [Compound C7S-3, 2-(1,1-dimethylpentyl)-5,6,7,8,9,9a-hexahydro-4bH-10-oxa-benzo[α]azulen-4-ol] the “Percent Inhibition … Edema” value [1, 4] was 43%, the “Percent Inhibition … ΔForce” value ([1]; 3 hours, mechanical stimulus) was 35% and the “Percent Inhibition … ΔLT” value ([1]; 3 hours, thermal stimulus) was 46%.
In the case of CCCCC(C)(C)c1cc2c(c(OP(=O)(O)O)c1)C1CCCCC1O2 (stereo not shown) [Compound C6S-16, Phosphoric acid mono-[3-(1,1-dimethylpentyl)-5a,6,7,8,9,9a-hexahydro-dibenzofuran-1-yl]ester], the inhibition in vivo at 20 mg/kg [1, 5] was 6%, the inhibition in vivo at 20 mg/kg [1, 6] was 31% and the inhibition in vivo at 20 mg/kg [1, 7] was 69%.
For CCCCCCC(C)(C)c1cc(OC(=O)CCNC)c2c(c1)OC1CC(C)(C)CCC21 (stereo not shown) [Compound C6S-39, 3-Methylamino-propionic acid 3-(1,1-dimethylheptyl)-7,7-dimethyl-5a,6,7,8,9,9a-hexahydro-dibenzofuran-1-yl ester], the “inhibition of writhing responses” value ([2]; 0.02 mg/kg i.v., compared to vehicle) was 38%, the “inhibition of pain response” value ([2]; 0.08 mg/kg i.v.) was “totally inhibited pain response” and the “fold more potent than morphine” value ([2]; IC50 in visceral pain, i.v.) was 35 fold. For the same compound, the inhibition in vivo at 2 mg/kg [2] was > 90% and the “IC50 in visceral pain” value ([2]; i.v., estimated or calculated from dose range) was 0.03 mg/kg.
Work on CCCCC(C)(C)c1cc(O)c2c(c1)OC1CCCCC21C (stereo not shown) [Compound C6S-12, 3-(1,1-dimethylpentyl)-9a-methyl-5a,6,7,8,9,9a-hexahydro-dibenzofuran-1-ol] yielded an inhibition in vivo at 10 mg/kg [1, 8] of 53%, an inhibition in vivo at 10 mg/kg [1, 5] of 37% and an inhibition in vivo at 10 mg/kg [1, 7] of 33%.
CCCCCCC(C)(C)c1cc(OCC(=O)O)c2c(c1)OC1CCCCC21 (stereo not shown) [Compound C6S-18, [3-(1,1-dimethylheptyl)-5a,6,7,8,9,9a-hexahydro-dibenzofuran-1-yloxy]-acetic acid] was tested, and the inhibition in vivo at 20 mg/kg [1, 5] was 31%, the inhibition in vivo at 20 mg/kg [1, 6] was 48% and the inhibition in vivo at 20 mg/kg [1, 7] was 49%.
Cc1ccc(-c2cc(C(F)(F)F)nn2-c2ccc(S(N)(=O)=O)cc2)cc1 [Celecoxib, reference compound] was tested, and the “Percent Inhibition … ΔForce” value ([1]; 3 hours, mechanical stimulus) was 2%, the inhibition in vivo at 10 mg/kg [1, 8] was 45% and the inhibition in vivo at 10 mg/kg [1, 5] was 2%. The inhibition in vivo at 10 mg/kg [1, 7] was 58% and the “activity in visceral pain model” value ([2]; doses up to 10 mg/kg) was “inactive”.
With CCCCCCC(C)(C)c1cc(OCC(=O)N(CC)CC)c2c(c1)OC1C(O)CCCCC21 (stereo not shown) [Compound C7S-17, 2-[2-(1,1-Dimethylheptyl)-9-hydroxy-5,6,7,8,9,9a-hexahydro-4bH-10-oxa-benzo[ ]azulen-4-yloxy]-N,N-diethyl-acetamide] the rectal temperature ([3]; 0.5 hr after injection) was 37.84±0.62 °C, the “rectal temperature below controls” value ([3]; 0.5 hr after injection, not statistically significant) was “about 0.9 °C” and the “rectal temperature (in words)” value ([3]; three hours after injection) was “back to baseline”.
Compound CCCCCCC(C)(C)c1cc(O)c2c3c(oc2c1)CCCC3 [Compound C6M-1, 3-(1,1-Dimethylheptyl)-6,7,8,9-tetrahydro-dibenzo-furan-1-ol] has an inhibition in vivo at 10 mg/kg [1, 8] of 31%, an inhibition in vivo at 10 mg/kg [1, 5] of 12% and an inhibition in vivo at 10 mg/kg [1, 7] of 12%.
COC(=O)c1cc(O)c2c(c1)OC1CCCCC21 (stereo not shown) [Compound C6S-21, 1-hydroxy-5a,6,7,8,9,9a-hexahydro-dibenzofuran-3-carboxylic acid methyl ester] showed an inhibition in vivo at 20 mg/kg [1, 6] of 38% and an inhibition in vivo at 20 mg/kg [1, 7] of 44%.
CCCCCCC(C)(C)c1cc2c(c(OP(=O)(O)O)c1)C1CCCCC(O)C1O2 (stereo not drawn) [Compound C7S-13, Phosphoric acid mono-[2-(1,1-dimethylheptyl)-9-hydroxy-5,6,7,8,9,9a-hexahydro-4bH-10-oxa-benzo[α]azulen-4-yl]ester] was tested, and the “Percent Inhibition … Edema” value [1, 4] was 34%, the “Percent Inhibition … ΔForce” value ([1]; 3 hours, mechanical stimulus) was 6% and the “Percent Inhibition … ΔLT” value ([1]; 3 hours, thermal stimulus) was 0%. The “Percent Inhibition of Visceral Pain Writhing Responses” value [2] was 72%.
In the case of CCCCCCC(C)(C)c1cc(O)c2c(c1)OC1C(N)CCCCC21 (stereo not drawn) [C7S-32 HCl salt, 9-Amino-2-(1,1-dimethylheptyl)-5,6,7,8,9,9a-hexahydro-4bH-10-oxa-benzo[α]azulen-4-ol], the “inhibition of pain (writhing) response” value ([2]; 4 mg/kg i.v.) was 50% and the “inhibition of pain (writhing) response” value ([2]; 10 mg/kg i.v.) was 84%.
